Experimental data: US20230265151A1, “GIP/GLP1 CO-AGONIST COMPOUNDS” (priority 2020, published 2023)
Like-named read-outs stand apart in the source and are kept apart here. *1 amine or outer side, *2 acyl side, *3 side chain or, on linkers, in order; H or OH if unused. Where a SMILES comes first, the peptide text is derived from it. Side-chain parts run from the residue outwards. [ ]: non-standard residue; d: D form. The star is where a group is joined. αMePhe(2-F) = C[C@](N)(Cc1ccccc1F)C(=O)O; γGlu = O=C(O)[C@H](CCC(=O)[*:2])N[*:1]; C14 diacid = O=C(O)CCCCCCCCCCCCC(=O)*; αMeY = C[C@](N)(Cc1ccc(O)cc1)C(=O)O; αMeL = CC(C)C[C@](C)(N)C(=O)O; Orn = NCCC[C@H](N)C(=O)O; AEEA = NCCOCCOCC(=O)O; Aib = CC(C)(N)C(=O)O

Experiments:
Type in all cases: cell-based
hGLP-1R = hGLP-1R (Homo sapiens, UniProt P43220); assay: Functional cAMP formation (HTRF) in HEK-293 clonal cells expressing hGLP-1R, 0.1% bovine casein, without or with 1.0% human serum albumin; parameters: expressed in transfected cells; conditions: for EC50: cAMP, read-out: hGLP-1R EC50, nM (SEM, n)
Chain of hGLP-1R (P43220 24-463): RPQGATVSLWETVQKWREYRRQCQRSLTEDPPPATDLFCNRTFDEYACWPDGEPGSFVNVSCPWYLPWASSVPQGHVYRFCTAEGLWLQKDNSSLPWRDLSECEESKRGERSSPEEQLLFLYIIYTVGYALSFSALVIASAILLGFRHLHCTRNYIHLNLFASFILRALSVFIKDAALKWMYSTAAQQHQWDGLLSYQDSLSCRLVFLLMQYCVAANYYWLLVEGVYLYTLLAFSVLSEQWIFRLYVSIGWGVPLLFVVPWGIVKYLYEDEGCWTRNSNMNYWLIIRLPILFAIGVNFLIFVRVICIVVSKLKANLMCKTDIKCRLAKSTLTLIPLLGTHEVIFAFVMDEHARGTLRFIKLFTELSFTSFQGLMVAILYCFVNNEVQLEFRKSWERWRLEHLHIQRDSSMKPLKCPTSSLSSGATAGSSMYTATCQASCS
How it was run: (§1)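 Readings of the HTRF 665/620 nm ratio, which falls as cAMP rises, were converted to nM cAMP using a standard curve after 30 min peptide exposure at 37° C.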

hGIPR = molecular target: T1, hGIPR (Homo sapiens, UniProt P48546); assay: Functional cAMP formation (HTRF) in HEK-293 clonal cells expressing hGIPR, 0.1% bovine casein, without or with 1.0% human serum albumin; conditions: for Emax: percent of maximal response to GIP(1-42)NH2, read-out: hGIPR Emax, % ± SEM; for EC50: cAMP, 0.1% bovine casein (no human serum albumin), geometric mean, read-out: hGIPR EC50, nM (SEM, n)
T1 construct: expressed in transfected cells
T1 sequence (P48546 22-466): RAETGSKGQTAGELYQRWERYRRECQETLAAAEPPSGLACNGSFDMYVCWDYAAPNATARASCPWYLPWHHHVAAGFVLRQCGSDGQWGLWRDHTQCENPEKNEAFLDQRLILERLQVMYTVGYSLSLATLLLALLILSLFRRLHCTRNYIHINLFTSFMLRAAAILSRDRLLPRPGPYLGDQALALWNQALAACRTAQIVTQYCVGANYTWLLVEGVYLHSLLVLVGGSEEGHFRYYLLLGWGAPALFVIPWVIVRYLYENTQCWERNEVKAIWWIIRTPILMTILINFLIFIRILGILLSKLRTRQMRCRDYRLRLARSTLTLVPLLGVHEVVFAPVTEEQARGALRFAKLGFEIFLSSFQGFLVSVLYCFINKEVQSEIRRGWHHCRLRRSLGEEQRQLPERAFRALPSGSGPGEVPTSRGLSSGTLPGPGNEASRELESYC
How it was run: as §1

hGCGR = molecular target: T2, hGCGR (Homo sapiens, UniProt P47871); assay: Functional cAMP formation (HTRF) in HEK-293 clonal cells expressing hGCGR, 0.1% bovine casein, without or with 1.0% human serum albumin; conditions: read-out: hGCGR EC50, nM (SEM, n)
T2 construct: expressed in transfected cells
T2 sequence (P47871 26-477): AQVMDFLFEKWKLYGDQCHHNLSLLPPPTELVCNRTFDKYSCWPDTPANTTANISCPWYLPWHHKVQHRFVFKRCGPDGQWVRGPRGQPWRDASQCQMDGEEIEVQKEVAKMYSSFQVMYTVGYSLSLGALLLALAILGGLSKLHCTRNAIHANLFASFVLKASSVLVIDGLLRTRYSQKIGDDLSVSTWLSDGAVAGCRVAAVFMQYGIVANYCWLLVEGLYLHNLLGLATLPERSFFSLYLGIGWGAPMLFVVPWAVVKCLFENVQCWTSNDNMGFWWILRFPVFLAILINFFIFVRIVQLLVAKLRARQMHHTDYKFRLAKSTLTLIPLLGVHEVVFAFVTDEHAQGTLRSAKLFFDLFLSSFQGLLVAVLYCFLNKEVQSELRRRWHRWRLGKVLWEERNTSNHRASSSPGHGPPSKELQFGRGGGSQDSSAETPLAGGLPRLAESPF
How it was run: as §1

Q: With CC[C@H](C)[C@H](NC(=O)[C@H](CC(C)C)NC(=O)[C@](C)(Cc1ccc(O)cc1)NC(=O)[C@@H](CCC(=O)O)NC(=O)[C@@H](NC(=O)[C@H](Cc1ccccc1)NC(=O)[C@H](CCCCNC(=O)COCCOCCNC(=O)CC[C@H](NC(=O)CCCCCCCCCCCCC(=O)O)C(=O)O)NC(=O)C(C)(C)NC(=O)[C@H](CCC(N)=O)NC(=O)[C@H](C)NC(=O)[C@H](CCCCNC(=O)COCCOCCNC(=O)CC[C@H](NC(=O)CCCCCCCCCCCCC(=O)O)C(=O)O)NC(=O)[C@H](CCCN)NC(=O)[C@H](CC(=O)O)NC(=O)[C@H](CC(C)C)NC(=O)[C@](C)(CC(C)C)NC(=O)[C@@H](NC(=O)C(C)(C)NC(=O)[C@@H](NC(=O)[C@H](CC(=O)O)NC(=O)[C@H](CO)NC(=O)[C@@H](NC(=O)[C@](C)(Cc1ccccc1F)NC(=O)[C@@H](NC(=O)CNC(=O)[C@H](CCC(=O)O)NC(=O)C(C)(C)NC(=O)[C@@H](N)Cc1ccc(O)cc1)[C@@H](C)O)[C@@H](C)O)C(C)C)[C@@H](C)CC)[C@@H](C)CC)C(=O)N[C@@H](CCC(=O)O)C(=O)NCC(=O)NCC(=O)N1CCC[C@H]1C(=O)N[C@@H](CO)C(=O)N[C@@H](CO)C(=O)NCC(=O)N[C@@H](C)C(=O)N1CCC[C@H]1C(=O)N1CCC[C@H]1C(=O)N1CCC[C@H]1C(=O)N[C@@H](CO)C(N)=O [Example 398] as the compound, how does the EC50 (hGLP-1R; 37° C., 0.1% bovine casein (no human serum albumin), geometric mean) read?
A: 0.215 nM

Q: And the EC50 (hGLP-1R; 37° C., 0.1% bovine casein and 1.0% human serum albumin, geometric mean (SEM, n))?
A: 41.3 nM

Q: What about the Emax (hGIPR; HEK293, cAMP, 37° C., 0.1% bovine casein and 1.0% human serum albumin) of the same compound?
A: 91.9%

Q: And the Emax (hGIPR; HEK293, cAMP, 37° C., 0.1% bovine casein, arithmetic mean)?
A: 97.4%

Q: And the EC50 (hGIPR; 37° C.)?
A: 0.0166 nM

Q: What about the EC50 (hGCGR; cAMP, 37° C., 0.1% bovine casein (no human serum albumin), geometric mean) of the same compound?
A: > 9950 nM

Q: What about the EC50 (hGCGR; cAMP, 37° C., 0.1% bovine casein and 1.0% human serum albumin, geometric mean (SEM, n)) of the same compound?
A: > 9950 nM

Q: Which results are given for CC[C@H](C)[C@H](NC(=O)[C@H](CCCN)NC(=O)[C@H](CC(=O)O)NC(=O)[C@H](CC(C)C)NC(=O)[C@](C)(CC(C)C)NC(=O)[C@@H](NC(=O)C(C)(C)NC(=O)[C@H](Cc1ccc(O)cc1)NC(=O)[C@H](CC(=O)O)NC(=O)[C@H](CO)NC(=O)[C@@H](NC(=O)[C@](C)(Cc1ccccc1F)NC(=O)[C@@H](NC(=O)CNC(=O)[C@H](CCC(=O)O)NC(=O)C(C)(C)NC(=O)[C@@H](N)Cc1ccc(O)cc1)[C@@H](C)O)[C@@H](C)O)[C@@H](C)CC)C(=O)N[C@@H](C)C(=O)N[C@@H](CCC(N)=O)C(=O)NC(C)(C)C(=O)N[C@@H](CCCCNC(=O)COCCOCCNC(=O)COCCOCCNC(=O)CC[C@H](NC(=O)CCCCCCCCCCCCC(=O)O)C(=O)O)C(=O)N[C@@H](Cc1ccccc1)C(=O)N[C@H](C(=O)N[C@H](CCC(=O)O)C(=O)N[C@@](C)(Cc1ccc(O)cc1)C(=O)N[C@@H](CC(C)C)C(=O)N[C@H](C(=O)N[C@@H](CCCCNC(=O)COCCOCCNC(=O)COCCOCCNC(=O)CC[C@H](NC(=O)CCCCCCCCCCCCC(=O)O)C(=O)O)C(=O)NCC(=O)NCC(=O)N1CCC[C@H]1C(=O)N[C@@H](CO)C(=O)N[C@@H](CO)C(=O)NCC(=O)N[C@@H](C)C(=O)N1CCC[C@H]1C(=O)N1CCC[C@H]1C(=O)N1CCC[C@H]1C(=O)N[C@@H](CO)C(N)=O)[C@@H](C)CC)[C@@H](C)CC [Example 234] (H-Y[Aib]EGT[αMePhe(2-F)]TSDY[Aib]I[αMeL]LD[Orn]IAQ[Aib]K([AEEA-AEEA-γGlu-C14 diacid])FI[dE][αMeY]LIK([AEEA-AEEA-γGlu-C14 diacid])GGPSSGAPPPS-NH2; N-terminus assumed)?
A: Emax (hGLP-1R; HEK293, percent of maximal response to GLP-1(7-36)NH2, 37° C., 0.1% bovine casein, arithmetic mean, read-out: hGLP-1R Emax, % ± SEM): 112%; EC50 (hGLP-1R; incubated at 37° C., 0.1% bovine casein (no human serum albumin), geometric mean): 0.319 nM; Emax (hGIPR; HEK293, 0.1% bovine casein and 1.0% human serum albumin, 37° C.): 84.4%; EC50 (hGIPR; incubated at 37° C.): 0.0182 nM; EC50 (hGCGR; 0.1% bovine casein and 1.0% human serum albumin, 37° C., geometric mean): > 9950 nM; EC50 (hGCGR; cAMP, incubated at 37° C., 0.1% bovine casein (no human serum albumin), geometric mean): > 9950 nM
